Measurements published in PubChem BioAssay AID220 (DTP/NCI, 2004).
“And” between values parts separate entries of the source, which are not always exact repeats. Identical values can stand only once. Results filed as inconclusive are left out.

Tested on: CD8F1 mice, subcutaneous mammary adenocarcinoma, T/C%
Assay: NCI In Vivo Anticancer Drug Screen. Data for tumor model Mammary Adenocarcinoma CD8F1 (subcutaneous) in CD8F1
Conditions: higher = larger tumour
Procedure, shortened: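 Transplantable tumors were established in mice, animals were dosed with compound or vehicle, and survival or tumor size was then measured in both groups. The treated result was divided by the control result.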

In the case of `CC1=C[S+](c2ccccc2)c2cccc3cc4ccccc4c1c23` (stereo unspecified), the T/C (endpoint: median tumor weight change, dose: 0.62 mg/kg/injection, schedule: Q01DX001 (ip), vehicle: saline with Tween-80) is reported as 103 % of control, the T/C (endpoint: median tumor weight change, dose: 5.0 mg/kg/injection, schedule: Q01DX001 (ip), vehicle: saline with Tween-80) is reported as 98 % of control and the T/C (endpoint: median tumor weight change, dose: 10.0 mg/kg/injection, schedule: Q01DX001 (ip), vehicle: saline with Tween-80) is reported as 40 % of control and 59 % of control.

`CO[C@@H]1[C@H](O)CC[C@]2(CO2)[C@H]1[C@@]1(C)O[C@@H]1CC=C(C)C` was tested, and the T/C (endpoint: median tumor weight change, dose: 31.25 mg/kg/injection, schedule: Q01DX001 (ip), vehicle: saline with Tween-80) was 113 % of control, the T/C (endpoint: median tumor weight change, dose: 62.5 mg/kg/injection, schedule: Q01DX001 (ip), vehicle: saline with Tween-80) was 100 % of control and the T/C (endpoint: median tumor weight change, dose: 125.0 mg/kg/injection, schedule: Q01DX001 (ip), vehicle: saline with Tween-80) was 106 % of control. For the same compound, the T/C (endpoint: median tumor weight change, dose: 250.0 mg/kg/injection, schedule: Q01DX001 (ip), vehicle: saline with Tween-80) was 110 % of control.

`CC12CCC3C(CCC4CC(OC(=O)Cc5ccc(N(CCCl)CCCl)cc5)CCC43C)C1CCC(=O)N2` (stereo unspecified) was tested, and the T/C (endpoint: median tumor weight (est.), dose: 0.75 mg/kg/injection, schedule: Q07DX005 (ip), vehicle: saline with Tween-80) was 63 % of control, the T/C (endpoint: median tumor weight (est.), dose: 1.5 mg/kg/injection, schedule: Q07DX005 (ip), vehicle: saline with Tween-80) was 109 % of control and the T/C (endpoint: median tumor weight (est.), dose: 3.0 mg/kg/injection, schedule: Q07DX005 (ip), vehicle: Klucel (hydroxypropylcellulose) (HPC)) was 91 % of control. For the same compound, the T/C (endpoint: median tumor weight (est.), dose: 3.0 mg/kg/injection, schedule: Q07DX005 (ip), vehicle: saline with Tween-80) was 99 % of control, the T/C (endpoint: median tumor weight (est.), dose: 6.0 mg/kg/injection, schedule: Q07DX005 (ip), vehicle: Klucel (hydroxypropylcellulose) (HPC)) was 41 % of control and the T/C (endpoint: median tumor weight (est.), dose: 6.0 mg/kg/injection, schedule: Q07DX005 (ip), vehicle: saline with Tween-80) was 55 % of control. For the same compound, the T/C (endpoint: median tumor weight (est.), dose: 12.0 mg/kg/injection, schedule: Q07DX005 (ip), vehicle: Klucel (hydroxypropylcellulose) (HPC)) was 30 % of control, the T/C (endpoint: median tumor weight (est.), dose: 12.0 mg/kg/injection, schedule: Q07DX005 (ip), vehicle: saline with Tween-80) was 12 % of control and the T/C (endpoint: median tumor weight (est.), dose: 24.0 mg/kg/injection, schedule: Q07DX005 (ip), vehicle: Klucel (hydroxypropylcellulose) (HPC)) was 8 % of control. The T/C (endpoint: median tumor weight (est.), dose: 24.0 mg/kg/injection, schedule: Q07DX005 (ip), vehicle: saline with Tween-80) was 1 % of control.

`O=CC(O)C(O)C(O)C(O)C(=O)O.[NH-]C1CCCCC1[NH-].[Pt+2]` (stereo unspecified) was tested, and the T/C (endpoint: median tumor weight (est.), dose: 6.25 mg/kg/injection, schedule: Q07DX005 (ip), vehicle: suspension in saline) was 48 % of control, the T/C (endpoint: median tumor weight (est.), dose: 12.5 mg/kg/injection, schedule: Q07DX005 (ip), vehicle: suspension in saline) was 7 % of control and 32 % of control and the T/C (endpoint: median tumor weight (est.), dose: 25.0 mg/kg/injection, schedule: Q07DX005 (ip), vehicle: suspension in saline) was 6 % of control.

`NC(=O)c1cn(C2OC(CO)C(O)C2O)c2ncnc(N)c12` (stereo unspecified) was tested, and the T/C (endpoint: median tumor weight (est.), dose: 1.0 mg/kg/injection, schedule: Q07DX005 (ip), vehicle: suspension in saline) was 63 % of control, the T/C (endpoint: median tumor weight (est.), dose: 2.0 mg/kg/injection, schedule: Q07DX005 (ip), vehicle: suspension in saline) was 27 % of control and 45 % of control and the T/C (endpoint: median tumor weight change, dose: 0.25 mg/kg/injection, schedule: Q01DX001 (ip), vehicle: saline) was 121 % of control. For the same compound, the T/C (endpoint: median tumor weight change, dose: 0.5 mg/kg/injection, schedule: Q01DX001 (ip), vehicle: saline) was 91 % of control, the T/C (endpoint: median tumor weight change, dose: 1.0 mg/kg/injection, schedule: Q01DX001 (ip), vehicle: saline) was 81 % of control and the T/C (endpoint: median tumor weight change, dose: 1.25 mg/kg/injection, schedule: Q01DX001 (ip), vehicle: suspension in saline) was 88 % of control. The T/C (endpoint: median tumor weight change, dose: 2.0 mg/kg/injection, schedule: Q01DX001 (ip), vehicle: saline) was 107 % of control, the T/C (endpoint: median tumor weight change, dose: 2.5 mg/kg/injection, schedule: Q01DX001 (ip), vehicle: suspension in saline) was 102 % of control and the T/C (endpoint: median tumor weight change, dose: 4.0 mg/kg/injection, schedule: Q01DX001 (ip), vehicle: saline) was 95 % of control. For the same compound, the T/C (endpoint: median tumor weight change, dose: 5.0 mg/kg/injection, schedule: Q01DX001 (ip), vehicle: suspension in saline) was 70 % of control and the T/C (endpoint: median tumor weight change, dose: 8.0 mg/kg/injection, schedule: Q01DX001 (ip), vehicle: saline) was 79 % of control.
